{"source": "patent US10738028B2", "about": "“Spiro three-membered ring, spiro five-membered ring peptide deformylase inhibitor and use thereof in antibacteria and anti-tumor” (priority 2016, dated 2020)", "format_in_all_cases": "cell-based", "key": {"[1]": {"system": "BEL-7402 liver cancer cell line", "assay": "CCK-8 proliferation inhibition", "settings": "concentration of 30 μM", "excerpt": "(§1) 2. The present invention adopts the CCK-8 method to determine the proliferation inhibition effect of the spiro three-membered ring, spiro five-membered ring peptide deformylase inhibitor as described in Examples 1-80 against colorectal cancer cells, lung cancer cells, gastric cancer cells, liver cancer cells, and the like. […] The compound having the best activity synthesized in Example 64 was further tested for its inhibitory activity against other tumor cells including T cell leukemia, acute myeloid leukemia, cervical cancer, breast cancer, prostate cancer and osteosarcoma, and the like (see Table 7).\n(§2) (1) HCT-116 colorectal cancer cell line, A549 lung cancer cell line, MGC-803 gastric cancer cell line, BEL-7402 liver cancer cell line, Jurkat T cell leukemia cell line, HL60 acute myeloid leukemia cell line, Hela cervical cancer cell line, MCF-7 breast cancer cell line, PC3 prostate cancer cell line and SAOS-2 osteosarcoma cell line were made into single cell suspension, 180 μL of which was inoculated into 96-well culture plate, which was cultured overnight in CO2 incubator (37° C., 5% CO2, 95% air).\n(§3) (2) Each of the spiro three-membered ring, spiro five membered ring peptide deformylase inhibitors was dissolved in DMSO, and was further formulated into drug solution with required different final concentration using corresponding cell culture medium. The drug solutions were added to the above cells respectively (20 μL/well), with the control group added with 1‰ DMSO, and cultured in a CO2 incubator for 72 hours.\n(§4) (3) After incubation for 72 hours, the culture solution was decanted, and 100 μL of 1:10 diluted CCK-8 solution was added.\n(§5) Wherein, in step (1), the concentration of the single cell suspension was 2000 cells/well.\n(§6) Wherein, in step (2), HCT-116 cells were cultured in McCoy's 5A medium (containing 10% newborn bovine serum, 1% double antibody); A549 and PC3 cells were cultured in F12 medium (containing 10% newborn bovine serum, 1% double antibody); MGC-803, BEL-7402, SAOS-2, Jurkat and HL60 cells were cultured in 1640 medium (containing 10% newborn bovine serum, 1% double antibody); and MCF-7 and Hela cells were cultured in DMEM high glucose medium (containing 10% newborn bovine serum, 1% double antibody)."}, "[2]": {"system": "A549 lung cancer cell line", "assay": "CCK-8 proliferation inhibition", "settings": "Homo sapiens, A549, 72 h, concentration of 30 μM", "excerpt": "as §1, §2, §3, §4, §5, §6"}, "[3]": {"system": "MGC-803 gastric cancer cell line", "assay": "CCK-8 proliferation inhibition", "settings": "Homo sapiens, MGC-803, 72 h, concentration of 30 μM", "excerpt": "as §1, §2, §3, §4, §5, §6"}, "[4]": {"system": "HCT-116 colorectal cancer cell line", "assay": "CCK-8 proliferation inhibition", "settings": "Homo sapiens, HCT-116, 72 h, concentration of 30 μM, 72 hours, CCK-8", "summary_of_the_method": "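Cells seeded at 2000 cells/well, cultured overnight at 37 °C, 5% CO2, then exposed to compound (DMSO; control 1‰ DMSO) for 72 h in McCoy's 5A with 10% newborn bovine serum. Viability read with 1:10 diluted CCK-8.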"}, "[5]": {"system": "methicillin-sensitive Staphylococcus aureus (MSSA)", "assay": "MIC, two-fold agar dilution (CLSI), clinical isolates", "summary_of_the_method": "(§7)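 MIC values come from two-fold agar dilution run per CLSI antimicrobial susceptibility testing procedure.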"}, "[6]": {"system": "Enterococcus faecalis (EFA)", "assay": "MIC, two-fold agar dilution (CLSI), clinical isolates", "summary_of_the_method": "as §7"}, "[7]": {"system": "methicillin-sensitive Staphylococcus epidermidis (MSSE)", "assay": "MIC, two-fold agar dilution (CLSI), clinical isolates", "summary_of_the_method": "as §7"}, "[8]": {"system": "Escherichia coli (including ESBLs, non-ESBLs)", "assay": "MIC, two-fold agar dilution (CLSI), clinical isolates", "summary_of_the_method": "as §7"}, "[9]": {"system": "Moraxella catarrhalis (BCA)", "assay": "MIC, two-fold agar dilution (CLSI), clinical isolates", "summary_of_the_method": "as §7"}, "[10]": {"system": "methicillin-resistant Staphylococcus epidermidis (MRSE)", "assay": "MIC, two-fold agar dilution (CLSI), clinical isolates", "summary_of_the_method": "as §7"}, "[11]": {"system": "Enterococcus faecium (EFM)", "assay": "MIC, two-fold agar dilution (CLSI), clinical isolates", "summary_of_the_method": "as §7"}, "[12]": {"system": "methicillin-resistant Staphylococcus aureus (MRSA)", "assay": "MIC, two-fold agar dilution (CLSI), clinical isolates", "summary_of_the_method": "as §7"}}, "note": "Like-named read-outs stand apart in the source and are kept apart here.", "data": [{"smiles": "CCCC[C@H](CC(=O)NO)C(=O)N1CC2(CCCC2)C[C@H]1C(=O)Nc1cnccn1", "note": "[Example 77]", "values": [{"measurement": "inhibition at 30 µM", "setting": "[1]; Homo sapiens, Bel-7402, 72 h", "value": "> 50", "unit": "%"}, {"measurement": "Inhibition of proliferation, Liver cancer BEL-7402", "setting": "[1]; 72 hours, 30 µM", "value": 49, "unit": "%"}, {"measurement": "inhibition at 30 µM", "setting": "[2]", "value": 16, "unit": "%"}, {"measurement": "inhibition at 30 µM", "setting": "[3]", "value": 19, "unit": "%"}, {"measurement": "inhibition at 30 µM", "setting": "[4]; Table 5, read-out: Inhibition of proliferation, Colorectal cancer HCT116", "value": "≥ 30", "unit": "%"}, {"measurement": "inhibition at 30 µM", "setting": "[4]; read-out: HCT116 inhibition rate/%", "value": 30, "unit": "%"}, {"measurement": "Anti-bacterial activity (MIC), strain MSSA 15-3", "setting": "[5]; clinical isolate MSSA 15-3", "value": 0.5, "unit": "µg/mL"}, {"measurement": "Anti-bacterial activity (MIC), strain MSSA 15-4", "setting": "[5]; clinical isolate MSSA 15-4", "value": 0.125, "unit": "µg/mL"}, {"measurement": "Anti-bacterial activity (MIC), strain MSSA 15-5", "setting": "[5]; clinical isolate MSSA 15-5", "value": 0.125, "unit": "µg/mL"}, {"measurement": "Anti-bacterial activity (MIC), strain MSSA 15-6", "setting": "[5]; clinical isolate MSSA 15-6", "value": "> 32", "unit": "µg/mL"}, {"measurement": "Anti-bacterial activity (MIC)", "setting": "[6]; strain EFA 15-1", "value": 32, "unit": "µg/mL"}, {"measurement": "Anti-bacterial activity (MIC)", "setting": "[6]; strain EFA 15-2", "value": 32, "unit": "µg/mL"}, {"measurement": "Anti-bacterial activity (MIC)", "setting": "[6]; strain EFA 15-3", "value": 32, "unit": "µg/mL"}, {"measurement": "Anti-bacterial activity (MIC)", "setting": "[6]; strain EFA 15-4", "value": 32, "unit": "µg/mL"}, {"measurement": "Anti-bacterial activity (MIC)", "setting": "[6]; strain EFA 15-5", "value": 32, "unit": "µg/mL"}, {"measurement": "Anti-bacterial activity (MIC)", "setting": "[6]; strain EFA 15-6", "value": 32, "unit": "µg/mL"}, {"measurement": "Anti-bacterial activity (MIC)", "setting": "[6]; strain EFA 15-9", "value": 16, "unit": "µg/mL"}, {"measurement": "Anti-bacterial activity (MIC), strain MSSE 15-3", "setting": "[7]; clinical isolate MSSE 15-3", "value": 0.5, "unit": "µg/mL"}, {"measurement": "Anti-bacterial activity (MIC), strain MSSE 15-4", "setting": "[7]; clinical isolate MSSE 15-4", "value": 2, "unit": "µg/mL"}, {"measurement": "Anti-bacterial activity (MIC), strain MSSE 15-5", "setting": "[7]; clinical isolate MSSE 15-5", "value": 2, "unit": "µg/mL"}, {"measurement": "Anti-bacterial activity (MIC), strain MSSE 15-6", "setting": "[7]; clinical isolate MSSE 15-6", "value": 0.125, "unit": "µg/mL"}, {"measurement": "Anti-bacterial activity (MIC), strain ECO+ 15-1", "setting": "[8]; clinical isolate ECO+ 15-1", "value": 0.125, "unit": "µg/mL"}, {"measurement": "Anti-bacterial activity (MIC), strain ECO+ 15-2", "setting": "[8]; clinical isolate ECO+ 15-2", "value": "> 32", "unit": "µg/mL"}, {"measurement": "Anti-bacterial activity (MIC), strain ECO+ 15-3", "setting": "[8]; clinical isolate ECO+ 15-3", "value": "> 32", "unit": "µg/mL"}, {"measurement": "Anti-bacterial activity (MIC), strain ECO+ 15-4", "setting": "[8]; clinical isolate ECO+ 15-4", "value": "> 32", "unit": "µg/mL"}, {"measurement": "Anti-bacterial activity (MIC), strain ECO− 15-1", "setting": "[8]; clinical isolate ECO− 15-1", "value": "> 32", "unit": "µg/mL"}, {"measurement": "Anti-bacterial activity (MIC), strain ECO− 15-2", "setting": "[8]; clinical isolate ECO− 15-2", "value": "> 32", "unit": "µg/mL"}, {"measurement": "Anti-bacterial activity (MIC), strain ECO− 15-3", "setting": "[8]; clinical isolate ECO− 15-3", "value": "> 32", "unit": "µg/mL"}, {"measurement": "Anti-bacterial activity (MIC), strain ECO− 15-4", "setting": "[8]; clinical isolate ECO− 15-4", "value": "> 32", "unit": "µg/mL"}, {"measurement": "Anti-bacterial activity (MIC)", "setting": "[9]; strain BCA 14-1", "value": 1, "unit": "µg/mL"}, {"measurement": "Anti-bacterial activity (MIC)", "setting": "[9]; strain BCA 14-4", "value": 2, "unit": "µg/mL"}, {"measurement": "Anti-bacterial activity (MIC)", "setting": "[9]; strain BCA 14-5", "value": 0.125, "unit": "µg/mL"}, {"measurement": "Anti-bacterial activity (MIC)", "setting": "[9]; strain BCA 14-6", "value": 0.5, "unit": "µg/mL"}, {"measurement": "Anti-bacterial activity (MIC)", "setting": "[9]; strain BCA 14-7", "value": 0.5, "unit": "µg/mL"}, {"measurement": "Anti-bacterial activity (MIC)", "setting": "[9]; strain BCA 14-8", "value": 0.5, "unit": "µg/mL"}, {"measurement": "Anti-bacterial activity (MIC)", "setting": "[9]; strain BCA 14-10", "value": 0.25, "unit": "µg/mL"}, {"measurement": "Anti-bacterial activity (MIC), strain MRSE 15-1", "setting": "[10]; clinical isolate MRSE 15-1", "value": 0.5, "unit": "µg/mL"}, {"measurement": "Anti-bacterial activity (MIC), strain MRSE 15-2", "setting": "[10]; clinical isolate MRSE 15-2", "value": 2, "unit": "µg/mL"}, {"measurement": "Anti-bacterial activity (MIC), strain MRSE 15-3", "setting": "[10]; clinical isolate MRSE 15-3", "value": 2, "unit": "µg/mL"}, {"measurement": "Anti-bacterial activity (MIC), strain MRSE 15-7", "setting": "[10]; clinical isolate MRSE 15-7", "value": 2, "unit": "µg/mL"}, {"measurement": "Anti-bacterial activity (MIC)", "setting": "[11]; strain EFM 15-1", "value": 32, "unit": "µg/mL"}, {"measurement": "Anti-bacterial activity (MIC)", "setting": "[11]; strain EFM 15-2", "value": 32, "unit": "µg/mL"}, {"measurement": "Anti-bacterial activity (MIC)", "setting": "[11]; strain EFM 15-3", "value": 32, "unit": "µg/mL"}, {"measurement": "Anti-bacterial activity (MIC)", "setting": "[11]; strain EFM 15-4", "value": 2, "unit": "µg/mL"}, {"measurement": "Anti-bacterial activity (MIC)", "setting": "[11]; strain EFM 15-5", "value": 2, "unit": "µg/mL"}, {"measurement": "Anti-bacterial activity (MIC)", "setting": "[11]; strain EFM 15-6", "value": 2, "unit": "µg/mL"}, {"measurement": "Anti-bacterial activity (MIC), strain MRSA 15-1", "setting": "[12]; clinical isolate MRSA 15-1", "value": 0.25, "unit": "µg/mL"}, {"measurement": "Anti-bacterial activity (MIC), strain MRSA 15-2", "setting": "[12]; clinical isolate MRSA 15-2", "value": 0.5, "unit": "µg/mL"}, {"measurement": "Anti-bacterial activity (MIC), strain MRSA 15-3", "setting": "[12]; clinical isolate MRSA 15-3", "value": 0.25, "unit": "µg/mL"}, {"measurement": "Anti-bacterial activity (MIC), strain MRSA 15-4", "setting": "[12]; clinical isolate MRSA 15-4", "value": 0.5, "unit": "µg/mL"}]}]}
